Results: article PMC3856494, “Radiofluorination and biological evaluation of N-aryl-oxadiazolyl-propionamides as potential radioligands for PET imaging of cannabinoid CB2 receptors” (Organic and Medicinal Chemistry Letters, 2013)
Read-outs that look alike come from different tables or passages of the source.

Assays:
[1] = Ex vivo metabolite studies (radio-HPLC of plasma and brain extracts); type: in vivo, CD1 mice; conditions: mice
Protocol: (§1) [^18F]1 and [^18F]2 (100 to 150 MBq, 250 to 450 GBq/μmol in 150 μL NaCl 0.9%/10% EtOH) were injected via the tail vein in CD1 male mice (10 to 12 weeks old, 20 to 25 g). Blood and urine samples were obtained at 30 and 60 min p.i. (n = 3 per time point). Twofold extractions of plasma and brain samples (n = 3) were performed using ice-cold MeCN according to the standard protocol established in our group (see [47, 48]). Briefly, plasma samples were obtained by centrifugation of the blood at 4,000×g at 4°C for 10 min, and brain samples were homogenized in ice-cold 50 mM Tris–HCl (pH = 7.4). The samples were vortexed, incubated on ice, and centrifuged at 10,000×g for 3 min. Supernatants were collected, and the precipitates were re-dissolved in ice-cold MeCN for the second extraction. The supernatants from the two extractions were combined, concentrated under a gentle argon stream at 65°C, and analyzed by radio-TLC and gradient analytical HPLC (see ‘Radiochemistry’ section). Aliquots from each extraction supernatant and the precipitates were also taken and quantified by γ counting (Wallac Wizard 1470, Perkin Elmer Inc., Waltham, MA, USA) along with the respective aliquots of intact plasma samples and brain homogenates. A moderate recovery of radioactivity was obtained from plasma samples and brain homogenates (60% to 70%). Radiometabolites of [^18F]17 in the plasma, spleen, and brain were assessed at 30 and 60 min p.i.

[2] = In vivo metabolism of [18F]17 and uptake of [18F]10; set-up: species or system CD1 mice; conditions: for tissue uptake at 0.5 h / tissue uptake at 1 h: mouse, iv, after i.v. 100 to 200 kBq [18F]17, female CD1 mice
Protocol: The total amount of activity measured in, e.g. the plasma at particular times p.i. also depends on the kinetics of the excretion of radiotracer/radiometabolites. For [^18F]2, this is more pronounced than for [^18F]1 with unmetabolized [^18F]2 accounting for only 2% of the total radioactivity in the plasma at 30 min p.i. At this time, more than 90% of the recovered activity in plasma samples for [^18F]2 consisted of the single radiometabolite M1b. As this value decreases only slightly up to 60 min p.i. (88%), M1b can be assumed as a rather metabolically stable compound. This radiometabolite of [^18F]2 probably corresponds to the N-aryl-oxadiazolyl-propanoic acid resulting from enzymatic hydrolysis of the amide bond of 2[40]. […] In order introduce ^18F into the molecule, the carbon acid moiety was protected as a methyl ester resulting in the labelled compound [^18F]17 (Scheme 5). It was expected that after injection of this compound in mice, the ester will be converted into the free acid [^18F]10. […] After intravenous injection of [^18F]17 in CD1 mice, samples of the plasma, brain, and spleen were analyzed at 30 and 60 min p.i. (Table 5).
as §1

## CCn1c2ccccc2c2cc(NC(=O)CCc3nc(-c4ccc([N+](C)(C)C)cc4Br)no3)ccc21.[I-] [Compound 13, 3-Bromo-4-(5-(3-((9-ethyl-9H-carbazol-3-yl)amino)-3-oxopropyl)-1,2,4-oxadiazol-3-yl)-N,N,N-trimethylbenzenaminium iodide]
other
  melting point: 109 °C

## COC(=O)CCc1nc(-c2ccc(F)cc2Br)no1 [Compound 17, Methyl-3-(3-(2-bromo-4-fluorophenyl)-1,2,4-oxadiazol-5-yl)propanoate]
other
  melting point: 39 °C

## O=C(O)CCc1nc(-c2ccc([18F])cc2Br)no1 [[^18F]10]
[1]; brain homogenate extract, 30 min p.i. of [18F]1 or [18F]2, radio-HPLC
  Percentage of total activity in brain samples, 30 min p.i.: 8%
[1]; brain homogenate extract, 60 min p.i. of [18F]1 or [18F]2, radio-HPLC
  Percentage of total activity in brain samples, 60 min p.i.: 51%
[1]; plasma, 60 min p.i. of [18F]1 or [18F]2, radio-HPLC
  Relative percentage of intact tracer and radiometabolites, Plasma 60 min p.i.: 88%
[2]; brain, read-out: uptake, Brain, 30 min p.i.
  tissue uptake at 0.5 h: 0.28 %ID/g
[2]; brain, read-out: uptake, Brain, 60 min p.i.
  tissue uptake at 1 h: 0.29 %ID/g
[2]; plasma, read-out: uptake, Plasma, 30 min p.i.
  tissue uptake at 0.5 h: 18.2 %ID/g
[2]; plasma, read-out: uptake, Plasma, 60 min p.i.
  tissue uptake at 1 h: 15.4 %ID/g
[2]; spleen, read-out: uptake, Spleen, 30 min p.i.
  tissue uptake at 0.5 h: 1.35 %ID/g
[2]; spleen, read-out: uptake, Spleen, 60 min p.i.
  tissue uptake at 1 h: 1.31 %ID/g
[2]; up to 60 min p.i. of [18F]17, CD1 mice
  Further metabolic transformation in brain and spleen samples: no further metabolic transformation

## COC(=O)CCc1nc(-c2ccc([18F])cc2Br)no1 [[^18F]17]
[2]; plasma, 30 min p.i., i.v., CD1 mice
  Conversion to free acid [18F]10 in plasma samples: completely converted

## COC(=O)CCc1nc(-c2ccc([N+](C)(C)C)cc2Br)no1.[I-] [Compound 18, 3-Bromo-4-(5-(3-methoxy-3-oxopropyl)-1,2,4-oxadiazol-3-yl)-N,N,N-trimethylbenzenaminium iodide]
other
  melting point: 119 °C

## Cc1ccc(S(=O)(=O)OCCn2c3ccccc3c3cc(NC(=O)CCc4nc(-c5ccc(F)cc5Br)no4)ccc32)cc1 [Compound 15, [2-(3-{3-[3-(2-Bromo-4-fluorophenyl)-1,2,4-oxadiazol-5-yl]propanamido}-9H-carbazol-9-yl)ethyl] 4-methylbenzenesulfonate]
other
  melting point: 136 °C
